# Source: US20220193070A1, “METHODS FOR TREATING ABSENCE SEIZURES” (XENON PHARMACEUTICALS INC., priority 2020, published 2022)
# Marks after values point to notes of the source that are not given here.
# Key:
# absence seizures [1] = assay: Open-label clinical study: absence seizure frequency from patient seizure diaries; assay type: in vivo, human
# Source text: Seizure frequency is documented via seizure diaries and side effects and safety are closely monitored. This study informs the feasibility and utility of conducting a larger clinical trial.
# Objectives: The primary objective is to assess the efficacy, safety and tolerability of flunarizine compared to a baseline period on absence seizures in patients with treatment refractory generalized epilepsy taking a minimum of one anti-seizure medication (ASM).
# This is an open-label, single-centre study to evaluate the clinical efficacy, safety and tolerability of flunarizine administered as adjunctive treatment in participants diagnosed with treatment resistant absence epilepsy. The study includes 20 participants.
# Inclusion Criteria: Participants eligible for this study meet all of the following criteria: • 1. Participant is 4 to 18 years of age • 2. Participant has treatment resistant absence seizures. Treatment resistant absence seizures are defined as failure to respond to […] appropriate anti-seizure medications (ASMs). […] Participant must currently be taking a minimum of one ASM • 4. Normal development (may have specific learning disabilities and/or ADHD/ADD) • 5. EEG confirmation of absence seizures and EEG within 2 months of screening visit • 6. Absence seizures reported at least 10 times per week • 7. Participants must have no changes in baseline ASMs for 1 month prior to screening period • 8. Participant or caregiver can maintain a seizure diary • 9. Participant is able to swallow capsules • 10. Written informed consent must be provided. Legal guardians of the participants must be able to understand and provide written consent on behalf of the participant, since study participants may be too young to provide informed consent. For participants 7-18 years of age, assent is required along with written informed consent of the caregiver. • 11. The participant is willing and able to attend all study visits • 12. Participant has the ability to speak and read in English • 13. Females of child bearing potential who are sexually active must be willing to use contraceptive methods for the duration of the study and 6 months post last dose of study drug. • 14. Males who are sexually active with females of child bearing potential must be willing to use contraception for the duration of the study and 3 months post last dose of study drug.
# The initial dose of flunarizine at Visit 2 is 5 mg/day taken at night. The dose is taken orally as one 5 mg capsule. In order to optimize response to treatment, dose escalation, at the discretion of the investigator, is performed at Visit 3. If the 5 mg/day dose is tolerated by any given participant, the dose is escalated to 10 mg/day taken as two 5 mg capsules. […] The investigator uses discretion to maintain or adjust the dose level based on the study participant's tolerability and clinical response, alongside other medical considerations. If deemed necessary by the investigator, the 10 mg dose is be split into morning and evening doses to reduce minor side effects.
# At the screening visit, the seizure history is assessed using detailed parental interviews and chart review. The investigator takes the participant's medical history (including date of seizure onset date of epilepsy diagnosis). The participant's vital signs (temperature, blood pressure and heart rate), height and weight are recorded.
# absence seizures [2] = assay: Open-label clinical study: number of absence seizures during EEG; assay type: in vivo, human; parameters: reduction of absence seizures on EEG: concentration or dose not given beside the values
# Source text: The secondary objectives are to evaluate EEG changes in patients with absence epilepsy; to evaluate changes in quality of life for patients; and to evaluate global impression change and clinical impression of change. The secondary outcome measures include median percent change in the number of absence seizures on EEG, and bursts of spike/wave lasting 2 or more seconds in patients treated with flunarizine compared with the baseline period; Clinical and Patient Global Impression of Change scores during the flunarizine treatment period; median percent change in weekly absence seizure frequency from baseline compared to end of study period; and median percent change in weekly absence seizure frequency from flunarizine treatment period.
# [3] = Open-label clinical study: safety, tolerability and questionnaires
smiles,measurement,setting,value
"Fc1ccc(C(c2ccc(F)cc2)N2CCN(C/C=C/c3ccccc3)CC2)cc1 [Flunarizine, 1-[bis(4-fluorophenyl)methyl]-4-cinnamyl-piperazine]",reduction in diary recorded seizures,absence seizures [1]; 2 of the 3 CAE patients,> 80%
same,Seizure Frequency at visit 5,"absence seizures [1]; Patient 1, Jeavons, 10 mg daily, current ASMs VPA, CLON, baseline 409 per month",608
same,% Reduction in Seizures,"absence seizures [1]; Patient 1, Jeavons, 10 mg daily, printed as Increase",~50%
same,% Reduction in Seizures,"absence seizures [1]; Patient 3, CAE, 10 mg daily",85%
same,Seizure Frequency at visit 5,"absence seizures [1]; Patient 3, CAE, 10 mg daily, current ASMs LTG, ESM, ketogenic diet, baseline 41 per month",6
same,% Reduction in Seizures,"absence seizures [1]; Patient 4, CAE, 10 mg daily",57%
same,Seizure Frequency at visit 5,"absence seizures [1]; Patient 4, CAE, 10 mg daily, current ASM LTG, baseline 79 per month",34
same,% Reduction in Seizures,"absence seizures [1]; Patient 5, CAE, 5 mg daily",83%
same,Seizure Frequency at visit 5,"absence seizures [1]; Patient 5, CAE, 5 mg daily, current ASM VPA, baseline 54 per month",9
same,reduction in diary recorded seizures,absence seizures [1]; all 3 CAE patients,> 50%
same,change in seizures,absence seizures [1]; one of the two patients with Jeavons Syndrome,increased seizures
same,study termination,absence seizures [1]; the other patient with Jeavons Syndrome,terminated within one week due to increase in seizures
same,response to flunarizine,absence seizures [1]; the two patients with Jeavons Syndrome,did not respond
same,absence seizures on EEG,absence seizures [2]; 2 of the three CAE subjects,resolution of absence seizures
same,% Reduction in Seizures (EEG),absence seizures [2]; Patient 1 (Jeavons),11%
same,"Number of Absence Seizures during EEG, Visit 5","absence seizures [2]; Patient 1 (Jeavons), baseline 9",8
same,% Reduction in Seizures (EEG),absence seizures [2]; Patient 3 (CAE),94%
same,"Number of Absence Seizures during EEG, Visit 5","absence seizures [2]; Patient 3 (CAE), baseline 16",1
same,% Reduction in Seizures (EEG),absence seizures [2]; Patient 4 (CAE),100%
same,"Number of Absence Seizures during EEG, Visit 5","absence seizures [2]; Patient 4 (CAE), baseline 7",0
same,% Reduction in Seizures (EEG),absence seizures [2]; Patient 5 (CAE),100%
same,"Number of Absence Seizures during EEG, Visit 5","absence seizures [2]; Patient 5 (CAE), baseline 5",0
same,% Reduction in Seizures (EEG),"absence seizures [2]; Patient 6 (JAE), 10 mg",50 to 100%***
same,"Number of Absence Seizures during EEG, Visit 5","absence seizures [2]; Patient 6 (JAE), 10 mg, baseline 6",3
same,reduction of absence seizures on EEG,absence seizures [2]; one of the three CAE subjects,94%
same,"reduction in seizures, EEG data",absence seizures [2]; single JAE subject,50 to 100%
same,Depressive symptoms and somnolence,"[3]; human, in vivo",not observed in any patient
same,tolerability,"[3]; patients 4 to 18 years, 5 or 10 mg/day oral",well tolerated
same,side effect,[3]; resulting in medication discontinuation,weight gain as the only side effect in one patient
